In ChEMBL document CHEMBL6121006, “Marine natural product-inspired discovery of novel BRD4 inhibitors with anti-inflammatory activity” (Eur J Med Chem, 2025):
The source made the active and inactive calls. No cut-off for these calls is given here.

What was measured:
[1] = target: T1, Bromodomain-containing protein 4 (Homo sapiens, UniProt O60885); experiment: Inhibition of human recombinant BRD4 BD2 (349 to 460 residues) extracted from Escherichia coli BL21 (DE3) at 10 uM incubated for 2 hrs by TR-FRET assay relative to control
[2] = target: T1, Bromodomain-containing protein 4; experiment: Inhibition of human recombinant BRD4 BD1 (42 to 167 residues) extracted from Escherichia coli BL21 (DE3) at 10 uM incubated for 2 hrs by TR-FRET assay relative to control
[3] = target: T1, Bromodomain-containing protein 4; experiment: Selectivity index, ratio of IC50 for human recombinant BRD4 BD1 (42 to 167 residues) extracted from Escherichia coli BL21 (DE3) to IC50 for human recombinant BRD4 BD2 (349 to 460 residues) extracted from Escherichia coli BL21 (DE3)
[4] = target: T1, Bromodomain-containing protein 4; experiment: Inhibition of human recombinant BRD4 BD1 (42 to 167 residues) extracted from Escherichia coli BL21 (DE3) incubated for 2 hrs by TR-FRET assay
[5] = system: RAW264.7; experiment: Anti-inflammatory activity in mouse RAW264.7 cells assessed as inhibition of LPS-induced NO production at 10 uM preincubated with compound for 24 hrs followed by LPS stimulation by Griess reagent based analysis relative to control; assay type: functional; parameters: scale not given: the % may be the effect or the level left
[6] = target: T1, Bromodomain-containing protein 4; experiment: Inhibition of human recombinant BRD4 BD2 (349 to 460 residues) extracted from Escherichia coli BL21 (DE3) incubated for 2 hrs by TR-FRET assay
[7] = system: RAW264.7; experiment: Anti-inflammatory activity in mouse RAW264.7 cells assessed as inhibition of LPS-induced NO production preincubated with compound for 24 hrs followed by LPS stimulation by Griess reagent based analysis; assay type: functional, cell-based
[8] = system: THP-1; experiment: Anti-inflammatory activity in human THP-1 cells assessed as inhibition of LPS-induced TNF-alpha expression preincubated with compound for 2 hrs followed by LPS stimulation and measured after 6 hrs by RT-qPCR analysis; assay type: functional, cell-based; conditions: dose 2.5-20 µM, time 8.0 hrs
[9] = system: RAW264.7; experiment: Anti-inflammatory activity in mouse RAW264.7 cells assessed as inhibition of LPS-induced TNF-alpha expression preincubated with compound for 2 hrs followed by LPS stimulation and measured after 6 hrs by RT-qPCR analysis; assay type: functional, cell-based; conditions: dose 2.5-20 µM, time 8.0 hrs
[10] = system: RAW264.7; experiment: Anti-inflammatory activity in mouse RAW264.7 cells assessed as inhibition of LPS-induced IL-6 expression preincubated with compound for 2 hrs followed by LPS stimulation and measured after 6 hrs by RT-qPCR analysis; assay type: functional, cell-based; conditions: dose 2.5-20 µM, time 8.0 hrs
[11] = system: THP-1; experiment: Anti-inflammatory activity in human THP-1 cells assessed as inhibition of LPS-induced IL-6 expression preincubated with compound for 2 hrs followed by LPS stimulation and measured after 6 hrs by RT-qPCR analysis; assay type: functional, cell-based; conditions: dose 2.5-20 µM, time 8.0 hrs
[12] = target: T1, Bromodomain-containing protein 4; experiment: Inhibition of BRD4 (unknown origin)

Structure (SMILES) | inhibition [1] [%] | inhibition [2] | Ratio IC50 [3] | IC50 [4] [µM] | Activity [5] [%] | IC50 [6] [µM] | further results
COc1cc(OC)c2c(=O)[nH]c(C(=O)c3cccc(C#N)c3)nc2c1 | 48 | 12% |  |  |  |  | 
COc1cc(OC)c2c(=O)[nH]c(/C=C/c3cc(OC)c(O)c(OC)c3)nc2c1 | 98 | 13% | > 26 | > 10 | 18 | 0.39 | 
COc1cc(OC)c2c(=O)[nH]c(/C(C)=C/c3ccccc3)nc2c1 | 59 | 20% | > 7 | > 10 | 6.8 | 1.33 | 
COc1cccc(/C=C/c2nc3cc(OC)cc(OC)c3c(=O)[nH]2)c1 | 67 | inactive |  |  | 78 | > 10 | IC50 [7]: 5.22 µM; inhibition [4]: inactive
COc1cc(OC)c2c(=O)[nH]c(C(=O)c3ccc(OCCO)cc3)nc2c1 | 48 | 1.3% |  |  |  |  | 
O=C(c1ccc(O)cc1)c1nc2ccccc2c(=O)[nH]1 | 11 | 17% |  |  |  |  | 
COc1cc(OC)c2c(=O)[nH]c(C(=O)c3cc(OC)c(OC)c(OC)c3)nc2c1 | 17 | 11% |  |  |  |  | 
COc1ccc(C(=O)c2nc3cc(OC)cc(OC)c3c(=O)[nH]2)cc1 | 51 | inactive | > 10 |  | 6.4 | 3.93 | inhibition [4]: inactive
COc1cc(OC)c2c(=O)[nH]c(C(=O)c3cccc(C(F)(F)F)c3)nc2c1 | 53 | 13% |  | > 10 | 12 | > 10 | 
COc1cc(OC)c2c(=O)[nH]c(/C=C/c3ccc(N(C)C)cc3)nc2c1 | 74 | 24% | > 21 | > 10 | 24 | 0.47 | 
COc1cc(OC)c2c(=O)[nH]c(CC(C)c3ccc(C(C)(C)C)cc3)nc2c1 (stereo not given) | 97 | 54% | > 13 | > 10 | 3.4 | 0.74 | 
COc1cc(OC)c2c(=O)[nH]c(-c3cc(C)c(OCCO)c(C)c3)nc2c1 [APABETALONE] | 99 |  |  |  | 74 |  | IC50 [7]: 8.76 µM; Activity [8]: Dose-dependent-effect; Activity [9]: Dose-dependent-effect; Activity [10]: Dose-dependent-effect; Activity [11]: Dose-dependent-effect
COc1cc(OC)c2c(=O)[nH]c(C(=O)c3ccc(F)cc3)nc2c1 | 52 | inactive | > 10 |  | 18 | 1.84 | inhibition [4]: inactive
COc1ccc(C(=O)c2nc3ccccc3c(=O)[nH]2)cc1 | 42 | 54% |  | 2.16 | 5.4 |  | 
COc1cc(C(=O)c2nc3ccccc3c(=O)[nH]2)cc(OC)c1OC | 15 | 22% |  |  |  |  | 
COc1cc(OC)c2c(=O)[nH]c(C(=O)c3ccc(OC)c(OC)c3)nc2c1 | 47 | 13% |  |  |  |  | 
C[C@@H]1C[C@H]2[C@@H]3CCC4=CC(=O)C=C[C@]4(C)[C@@]3(F)[C@@H](O)C[C@]2(C)[C@@]1(O)C(=O)CO [DEXAMETHASONE] |  |  |  |  | 29 |  | 
COc1ccc(Cc2nc3cc(OC)cc(OC)c3c(=O)[nH]2)cc1 | 75 | 56% | 3 | 4.59 | 15 | 1.52 | 
COc1cc(OC)c2c(=O)[nH]c(C=C(c3ccccc3)c3ccccc3)nc2c1 | 66 | 3.1% | > 1 | > 10 | 21 | 7.06 | 
COc1cc(OC)c2c(=O)[nH]c(C3CCN(Cc4ccccc4)CC3)nc2c1 | 46 | 51% |  | 7.87 | 89 | > 10 | IC50 [7]: 6.78 µM
COc1ccc(C(=O)c2nc3cc(OC)c(I)c(OC)c3c(=O)[nH]2)cc1 | 53 | 10% |  | > 10 | 14 | > 10 | 
COc1cc(OC)c2c(=O)[nH]c(C(=O)c3cc(F)ccc3F)nc2c1 | 46 | 10% |  |  |  |  | 
COc1ccc(CCc2nc3cc(OC)cc(OC)c3c(=O)[nH]2)cc1 | 86 | 12% | > 13 | > 10 | 17 | 0.74 | 
O=C(c1ccc2ccccc2c1)c1nc2ccccc2c(=O)[nH]1 | 17 | 16% |  |  |  |  | 
COc1cc(OC)c2c(=O)[nH]c(/C=C/c3ccc(Cl)cc3)nc2c1 | 54 | 23% |  | > 10 | 11 | > 10 | 
Cc1nnn(C)c1-c1cnc2c3cc4cnn(C)c4cc3n([C@H](c3ccccc3)C3CCOCC3)c2c1 |  |  |  |  |  |  | IC50 [12]: 0.00245 µM
